The target in one assay is T1, Tyk2 (Homo sapiens, UniProt P29597).
T1 construct: purchased Invitrogen
The assay can be described thus: Tyk2 enzyme inhibition test (LANCE method). It is filed as biochemical. To be noted: test compound 1 μM; for inhibition at 1 µM: read-out: Inhibitory rate (%) Tyk2 1 μM. In short, it runs like this: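 Recombinant Tyk2 (375 ng/mL stock) with ULight-JAK1 peptide (300 nM stock) and ATP (30 μM stock) in HEPES pH 7.5/MgCl2/EGTA/DTT buffer, 1 h at room temperature. Stopped with EDTA plus Eu-anti-phosphotyrosine antibody; TR-FRET read at 665 nm after 1 h. No-enzyme wells define 100% inhibition.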

The target in another assay is T2, JAK1 (Homo sapiens, UniProt P23458).
T2 construct: purchased Invitrogen
T2 sequence (P23458 whole entry): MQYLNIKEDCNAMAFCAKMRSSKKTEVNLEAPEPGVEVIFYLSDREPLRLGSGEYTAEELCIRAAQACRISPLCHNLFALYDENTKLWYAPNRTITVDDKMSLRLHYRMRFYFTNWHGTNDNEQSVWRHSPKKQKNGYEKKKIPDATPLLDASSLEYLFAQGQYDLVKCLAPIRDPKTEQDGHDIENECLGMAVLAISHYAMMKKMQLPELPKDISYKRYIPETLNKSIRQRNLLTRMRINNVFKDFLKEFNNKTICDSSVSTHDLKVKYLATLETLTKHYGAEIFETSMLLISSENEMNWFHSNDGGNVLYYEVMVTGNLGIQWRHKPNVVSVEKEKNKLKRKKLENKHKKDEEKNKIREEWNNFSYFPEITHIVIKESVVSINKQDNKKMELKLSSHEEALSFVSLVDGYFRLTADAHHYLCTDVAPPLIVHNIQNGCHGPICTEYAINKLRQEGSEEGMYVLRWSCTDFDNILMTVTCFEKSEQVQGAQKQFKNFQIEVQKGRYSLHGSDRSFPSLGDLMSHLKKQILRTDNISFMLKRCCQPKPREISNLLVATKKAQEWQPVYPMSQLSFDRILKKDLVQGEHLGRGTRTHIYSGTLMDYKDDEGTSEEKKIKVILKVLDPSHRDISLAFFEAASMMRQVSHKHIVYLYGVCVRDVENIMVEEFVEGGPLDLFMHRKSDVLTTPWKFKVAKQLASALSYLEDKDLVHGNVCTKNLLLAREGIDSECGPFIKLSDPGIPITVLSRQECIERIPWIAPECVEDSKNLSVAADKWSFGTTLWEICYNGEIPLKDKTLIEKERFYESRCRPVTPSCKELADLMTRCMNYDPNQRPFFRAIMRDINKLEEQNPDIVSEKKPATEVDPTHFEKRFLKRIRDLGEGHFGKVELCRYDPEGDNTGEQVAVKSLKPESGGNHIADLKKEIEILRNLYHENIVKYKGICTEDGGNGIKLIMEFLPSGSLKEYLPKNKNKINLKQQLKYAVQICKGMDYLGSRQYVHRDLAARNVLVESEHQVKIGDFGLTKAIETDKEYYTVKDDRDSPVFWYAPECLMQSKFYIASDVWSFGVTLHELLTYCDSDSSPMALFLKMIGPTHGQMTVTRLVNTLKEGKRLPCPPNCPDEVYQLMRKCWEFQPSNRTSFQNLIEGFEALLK
In words: JAK1 enzyme inhibition test (LANCE method). Type of assay: biochemical. To be noted: test compound 1 μM; for inhibition at 1 µM: read-out: Inhibitory rate (%) JAK1 1 μM. In short, it runs like this: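 TR-FRET (LANCE) kinase assay using JAK1 at 187.5 ng/mL, ULight-JAK1 peptide at 300 nM and ATP at 150 μM, given as solution concentrations before mixing. Buffer was 50 mM HEPES pH 7.5 with 10 mM MgCl2 and 2 mM DTT, and the reaction ran 1 h at room temperature. Eu anti-phosphotyrosine signal at 665 nm was expressed relative to a no-enzyme well, taken as 100% inhibition.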

The structures appear in SMILES notation. Structures can show the parent of a compound that is named as a salt.

The text below walks through data of patent US9371320B2, “Heterocyclic compound” (TAKEDA PHARMACEUTICAL COMPANY LIMITED, priority 2012, dated 2016).

T1 sequence (P29597 whole entry): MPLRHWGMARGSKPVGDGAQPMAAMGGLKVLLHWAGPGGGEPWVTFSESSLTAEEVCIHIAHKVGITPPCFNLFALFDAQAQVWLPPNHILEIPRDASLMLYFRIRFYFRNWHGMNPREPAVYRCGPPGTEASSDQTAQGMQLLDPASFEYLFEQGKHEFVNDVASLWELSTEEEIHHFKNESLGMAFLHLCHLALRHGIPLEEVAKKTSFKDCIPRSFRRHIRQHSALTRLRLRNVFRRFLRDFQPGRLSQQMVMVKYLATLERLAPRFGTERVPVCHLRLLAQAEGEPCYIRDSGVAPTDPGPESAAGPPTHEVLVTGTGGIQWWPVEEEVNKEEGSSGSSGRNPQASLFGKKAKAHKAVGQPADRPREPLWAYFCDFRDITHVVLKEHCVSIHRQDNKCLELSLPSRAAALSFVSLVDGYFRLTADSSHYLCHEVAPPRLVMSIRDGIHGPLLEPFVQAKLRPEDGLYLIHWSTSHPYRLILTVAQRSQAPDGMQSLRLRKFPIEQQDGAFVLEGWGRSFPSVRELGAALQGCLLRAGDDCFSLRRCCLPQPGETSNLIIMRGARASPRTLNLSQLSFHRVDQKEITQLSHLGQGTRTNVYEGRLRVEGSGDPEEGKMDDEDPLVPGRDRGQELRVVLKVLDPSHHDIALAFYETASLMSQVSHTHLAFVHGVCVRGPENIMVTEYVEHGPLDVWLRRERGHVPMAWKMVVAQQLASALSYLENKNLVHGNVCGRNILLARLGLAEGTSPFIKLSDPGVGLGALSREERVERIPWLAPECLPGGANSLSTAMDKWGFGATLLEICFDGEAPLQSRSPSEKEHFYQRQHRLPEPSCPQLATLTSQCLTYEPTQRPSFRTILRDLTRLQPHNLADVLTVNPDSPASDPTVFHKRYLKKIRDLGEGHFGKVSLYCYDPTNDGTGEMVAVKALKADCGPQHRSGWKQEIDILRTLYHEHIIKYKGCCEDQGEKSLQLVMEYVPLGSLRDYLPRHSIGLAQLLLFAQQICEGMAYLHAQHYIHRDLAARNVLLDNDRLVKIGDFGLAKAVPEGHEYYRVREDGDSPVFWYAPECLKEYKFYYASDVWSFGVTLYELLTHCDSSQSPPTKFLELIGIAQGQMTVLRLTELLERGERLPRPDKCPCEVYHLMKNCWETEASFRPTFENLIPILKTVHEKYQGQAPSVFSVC

For `N#CCOc1ccc(-c2cn(C3CCCC3)c3c(C#N)c[nH]c(=O)c23)cc1` [Example 121, 3-(4-(cyanomethoxy)phenyl)-1-cyclopentyl-4-oxo-4,5-dihydro-1H-pyrrolo[3,2-c]pyridine-7-carbonitrile], the inhibition at 1 µM amounted to 97% at Tyk2 and 87% on JAK1.

In the case of `CCNC(=O)c1cc(-c2cn(C3CCCC3)c3c(C#N)c[nH]c(=O)c23)cs1` [Example 122, 4-(7-cyano-1-cyclopentyl-4-oxo-4,5-dihydro-1H-pyrrolo[3,2-c]pyridin-3-yl)-N-ethylthiophene-2-carboxamide], the inhibition at 1 µM is 100% at Tyk2 and 99% at JAK1.

In the case of `CC(C)(C)NC(=O)c1cc(-c2cn(C3CCCC3)c3c(C#N)c[nH]c(=O)c23)cs1` [Example 123, N-tert-butyl-4-(7-cyano-1-cyclopentyl-4-oxo-4,5-dihydro-1H-pyrrolo[3,2-c]pyridin-3-yl)thiophene-2-carboxamide], the inhibition at 1 µM on Tyk2 and at JAK1 was 99% each time.

As for `NC(=O)Cc1ccc(-c2nn(-c3c(F)cccc3F)c3c(Cl)c[nH]c(=O)c23)cc1` [Example 124, 2-(4-(7-chloro-1-(2,6-difluorophenyl)-4-oxo-4,5-dihydro-1H-pyrazolo[4,3-c]pyridin-3-yl)phenyl)acetamide], the results for the inhibition at 1 µM on Tyk2 and at JAK1 were 98% and 89%, respectively.

`N#Cc1c[nH]c(=O)c2c(-c3ccn[nH]3)cn(C3CCCC3)c12` [Example 125, 1-cyclopentyl-4-oxo-3-(1H-pyrazol-5-yl)-4,5-dihydro-1H-pyrrolo[3,2-c]pyridine-7-carbonitrile hydrochloride]: the inhibition at 1 µM on Tyk2 came out at 96%; on JAK1, 80%.

For `NS(=O)(=O)c1ccc(-c2nn(C3CCC(O)CC3)c3cc[nH]c(=O)c23)cc1` (centres unmarked) [Example 126, 4-(1-(4-hydroxycyclohexyl)-4-oxo-4,5-dihydro-1H-pyrazolo[4,3-c]pyridin-3-yl)benzenesulfonamide], the “Inhibitory rate (%) Tyk2 1 μM” value on Tyk2 is 98%. Also, the “Inhibitory rate (%) JAK1 1 μM” value on JAK1 is 99%.

`N#CCc1ccc(-c2nn(C3CCCC3)c3cc[nH]c(=O)c23)cc1` [Example 127, (4-(1-cyclopentyl-4-oxo-4,5-dihydro-1H-pyrazolo[4,3-c]pyridin-3-yl)phenyl)acetonitrile]: the inhibition at 1 µM at Tyk2 was 97%; on JAK1 it was 99%.

Turning to `N#CCc1cccc(-c2nn(C3CCCC3)c3cc[nH]c(=O)c23)c1` [Example 128, (3-(1-cyclopentyl-4-oxo-4,5-dihydro-1H-pyrazolo[4,3-c]pyridin-3-yl)phenyl)acetonitrile], the inhibition at 1 µM on Tyk2 and at JAK1 was 93% throughout.

As for `CC(C)(C)n1nc(-c2csc(C(N)=O)c2)c2c(=O)[nH]ccc21` [Example 129, 4-(1-tert-butyl-4-oxo-4,5-dihydro-1H-pyrazolo[4,3-c]pyridin-3-yl)thiophene-2-carboxamide], the inhibition at 1 µM on Tyk2 is 97%; at JAK1 it was 98%.

As for `CC(=O)Nc1cccc(-c2cn(C3CCCC3)c3c(C#N)c[nH]c(=O)c23)c1` [Example 130, N-(3-(7-cyano-1-cyclopentyl-4-oxo-4,5-dihydro-1H-pyrrolo[3,2-c]pyridin-3-yl)phenyl)acetamide], the inhibition at 1 µM at Tyk2 came out at 96%; on JAK1 it was 76%.

Regarding `Cn1cc(-c2cn(C3CCCC3)c3c(C#N)c[nH]c(=O)c23)cn1` [Example 131, 1-cyclopentyl-3-(1-methyl-1H-pyrazol-4-yl)-4-oxo-4,5-dihydro-1H-pyrrolo[3,2-c]pyridine-7-carbonitrile], the values for the inhibition at 1 µM on Tyk2 and at JAK1 were 99% and 97%, respectively.

Consider `N#Cc1c[nH]c(=O)c2c(-c3ccccn3)cn(C3CCCC3)c12` [Example 132, 1-cyclopentyl-4-oxo-3-(pyridin-2-yl)-4,5-dihydro-1H-pyrrolo[3,2-c]pyridine-7-carbonitrile], for which the inhibition at 1 µM at Tyk2 worked out at 74%; at JAK1, 27%.

As for `N#Cc1c[nH]c(=O)c2c(-c3cccnc3)cn(C3CCCC3)c12` [Example 133, 1-cyclopentyl-4-oxo-3-(pyridin-3-yl)-4,5-dihydro-1H-pyrrolo[3,2-c]pyridine-7-carbonitrile], the inhibition at 1 µM on Tyk2 turned out to be 90%; on JAK1, 47%.

With `N#Cc1c[nH]c(=O)c2c(-c3cccs3)cn(C3CCCC3)c12` [Example 134, 1-cyclopentyl-4-oxo-3-(2-thienyl)-4,5-dihydro-1H-pyrrolo[3,2-c]pyridine-7-carbonitrile], the results for the inhibition at 1 µM at Tyk2 and at JAK1 were 97% and 78%, respectively.

For `CC(C)Cn1cc(-c2cn(C3CCCC3)c3c(C#N)c[nH]c(=O)c23)cn1` [Example 135, 1-cyclopentyl-3-(1-isobutyl-1H-pyrazol-4-yl)-4-oxo-4,5-dihydro-1H-pyrrolo[3,2-c]pyridine-7-carbonitrile], the inhibition at 1 µM at Tyk2 came out at 97%; at JAK1, 56%.

`Cn1ccc(-c2cn(C3CCCC3)c3c(C#N)c[nH]c(=O)c23)n1` [Example 136, 1-cyclopentyl-3-(1-methyl-1H-pyrazol-3-yl)-4-oxo-4,5-dihydro-1H-pyrrolo[3,2-c]pyridine-7-carbonitrile]: the inhibition at 1 µM on Tyk2 came out at 93%; on JAK1 it was 59%.

For the compound `N#Cc1c[nH]c(=O)c2c(-c3cnn(C4CCCC4)c3)cn(C3CCCC3)c12` [Example 137, 1-cyclopentyl-3-(1-cyclopentyl-1H-pyrazol-4-yl)-4-oxo-4,5-dihydro-1H-pyrrolo[3,2-c]pyridine-7-carbonitrile], the inhibition at 1 µM on Tyk2 came to 98%; on JAK1 it was 77%.

Consider `N#Cc1c[nH]c(=O)c2c(-c3cnn(C4CC4)c3)cn(C3CCCC3)c12` [Example 138, 1-cyclopentyl-3-(1-cyclopropyl-1H-pyrazol-4-yl)-4-oxo-4,5-dihydro-1H-pyrrolo[3,2-c]pyridine-7-carbonitrile], for which the inhibition at 1 µM stood at 99% at Tyk2 and 94% at JAK1.

`CC(C)(C#N)c1ccc(-c2cn(C3CCCC3)c3c(C#N)c[nH]c(=O)c23)cc1` [Example 139, 3-(4-(2-cyanopropan-2-yl)phenyl)-1-cyclopentyl-4-oxo-4,5-dihydro-1H-pyrrolo[3,2-c]pyridine-7-carbonitrile]: the figures for the inhibition at 1 µM at Tyk2 and at JAK1 were 98% and 96%, respectively.

For `N#Cc1c[nH]c(=O)c2c(-c3cccc(N4CCOCC4)c3)cn(C3CCCC3)c12` [Example 140, 1-cyclopentyl-3-(3-(morpholin-4-yl)phenyl)-4-oxo-4,5-dihydro-1H-pyrrolo[3,2-c]pyridine-7-carbonitrile], the inhibition at 1 µM turned out to be 91% on Tyk2 and 17% at JAK1.

For `CC1(Cn2nc(-c3csc(C(N)=O)c3)c3c(=O)[nH]ccc32)COC1` [Example 141, 4-(1-((3-methyloxetan-3-yl)methyl)-4-oxo-4,5-dihydro-1H-pyrazolo[4,3-c]pyridin-3-yl)thiophene-2-carboxamide], the inhibition at 1 µM at Tyk2 was 92%; on JAK1 it was 99%.

As to `NC(=O)c1ccc(-c2nn(C3CCCC3)c3cc[nH]c(=O)c23)cc1` [Example 142, 4-(1-cyclopentyl-4-oxo-4,5-dihydro-1H-pyrazolo[4,3-c]pyridin-3-yl)benzamide], the inhibition at 1 µM came out at 97% at Tyk2 and 96% on JAK1.

Turning to `NC(=O)c1cccc(-c2nn(C3CCCC3)c3cc[nH]c(=O)c23)c1` [Example 143, 3-(1-cyclopentyl-4-oxo-4,5-dihydro-1H-pyrazolo[4,3-c]pyridin-3-yl)benzamide], the figures for the inhibition at 1 µM on Tyk2 and on JAK1 were 92% and 93%, respectively.

For the compound `NC(=O)c1cc(-c2nn(-c3c(F)cccc3F)c3c(Br)c[nH]c(=O)c23)cs1` [Example 144, 4-(7-bromo-1-(2,6-difluorophenyl)-4-oxo-4,5-dihydro-1H-pyrazolo[4,3-c]pyridin-3-yl)thiophene-2-carboxamide], the inhibition at 1 µM at Tyk2 is 95%; at JAK1, 99%.

With `CNC(=O)c1cc(-c2nn(-c3c(F)cccc3F)c3c(Br)c[nH]c(=O)c23)cs1` [Example 145, 4-(7-bromo-1-(2,6-difluorophenyl)-4-oxo-4,5-dihydro-1H-pyrazolo[4,3-c]pyridin-3-yl)-N-methylthiophene-2-carboxamide], the inhibition at 1 µM at Tyk2 was found to be 100%; at JAK1 it was 99%.

For `N#CCc1cccc(-c2nn(-c3c(F)cccc3F)c3c(Br)c[nH]c(=O)c23)c1` [Example 146, (3-(7-bromo-1-(2,6-difluorophenyl)-4-oxo-4,5-dihydro-1H-pyrazolo[4,3-c]pyridin-3-yl)phenyl)acetonitrile], the inhibition at 1 µM amounted to 98% on Tyk2 and 69% at JAK1.

Turning to `NC(=O)Cc1cccc(-c2nn(-c3c(F)cccc3F)c3c(Br)c[nH]c(=O)c23)c1` [Example 147, 2-(3-(7-bromo-1-(2,6-difluorophenyl)-4-oxo-4,5-dihydro-1H-pyrazolo[4,3-c]pyridin-3-yl)phenyl)acetamide], the inhibition at 1 µM on Tyk2 turned out to be 99%; at JAK1 it was 74%.

Regarding `NC(=O)c1cc(-c2nn(C3CCC4(CC3)OCCO4)c3cc[nH]c(=O)c23)cs1` [Example 148, 4-(1-(1,4-dioxaspiro[4.5]dec-8-yl)-4-oxo-4,5-dihydro-1H-pyrazolo[4,3-c]pyridin-3-yl)thiophene-2-carboxamide], the results for the inhibition at 1 µM at Tyk2 and on JAK1 were 98% and 99%, respectively.
